Data from publication PMC10221074, “Functional Profiling of the A-Family of Venom Peptides from the Wolf Spider Lycosa shansia” (Toxins, 2023).

Legend:
[1] = test system: panel of seven bacterial strains; assay: Antibacterial growth assay (OD600), statements on the whole panel; assay type: cell-based; settings: growth after 48 h
[2] = test system: Escherichia coli BL21(DE3); assay: Antibacterial growth assay (OD600); settings: for Bacterial growth relative to medium, E. coli, replicate 1 / Bacterial growth relative to medium, E. coli, replicate 2 / Bacterial growth relative to medium, E. coli, replicate 3: OD600, medium = 100, MH II broth, 37 °C, peptide 200 µM mixed 50 µL + 50 µL with bacteria, Figure 7: 48 h; for Bacterial growth relative to medium, E. coli, replicate 1: replicate column 1; for Bacterial growth relative to medium, E. coli, replicate 2: replicate column 2; for Bacterial growth relative to medium, E. coli, replicate 3: replicate column 3
A/Hamburg/05/2009 (H1N1) = assay type: cell-based, influenza virus
A/Hessen/1/2003 (H3N2) = assay type: cell-based, influenza virus
[3] = test system: Pseudomonas aeruginosa DSM 1117; assay: Antibacterial growth assay (OD600); settings: for Bacterial growth relative to medium, P. aeruginosa (1117), replicate 1 / Bacterial growth relative to medium, P. aeruginosa (1117), replicate 2 / Bacterial growth relative to medium, P. aeruginosa (1117), replicate 3: OD600, medium = 100, MH II broth, 37 °C, peptide 200 µM mixed 50 µL + 50 µL with bacteria, Figure 7: 48 h; for Bacterial growth relative to medium, P. aeruginosa (1117), replicate 1: replicate column 1; for Bacterial growth relative to medium, P. aeruginosa (1117), replicate 2: replicate column 2; for Bacterial growth relative to medium, P. aeruginosa (1117), replicate 3: replicate column 3
[4] = test system: B/Malaysia/2506/2004 (B-Mal); assay type: cell-based, influenza virus
[5] = test system: Listeria monocytogenes DSM 20600; assay: Antibacterial growth assay (OD600); settings: for Bacterial growth relative to medium, L. monocytogenes, replicate 1 / Bacterial growth relative to medium, L. monocytogenes, replicate 2 / Bacterial growth relative to medium, L. monocytogenes, replicate 3: OD600, medium = 100, MH II broth, 37 °C, peptide 200 µM mixed 50 µL + 50 µL with bacteria, Figure 7: 48 h; for Bacterial growth relative to medium, L. monocytogenes, replicate 1: replicate column 1; for Bacterial growth relative to medium, L. monocytogenes, replicate 2: replicate column 2; for Bacterial growth relative to medium, L. monocytogenes, replicate 3: replicate column 3; for Antibacterial activity (in words): L. monocytogenes DSM 20600, growth after 48 h
[6] = test system: Staphylococcus aureus DSM 2569; assay: Antibacterial growth assay (OD600); settings: for Bacterial growth relative to medium, S. aureus, replicate 1 / Bacterial growth relative to medium, S. aureus, replicate 2 / Bacterial growth relative to medium, S. aureus, replicate 3: OD600, medium = 100, MH II broth, 37 °C, peptide 200 µM mixed 50 µL + 50 µL with bacteria, Figure 7: 48 h; for Bacterial growth relative to medium, S. aureus, replicate 1: replicate column 1; for Bacterial growth relative to medium, S. aureus, replicate 2: replicate column 2; for Bacterial growth relative to medium, S. aureus, replicate 3: replicate column 3
[7] = test system: Micrococcus luteus DSM 20030; assay: Antibacterial growth assay (OD600); settings: for Bacterial growth relative to medium, M. luteus, replicate 1 / Bacterial growth relative to medium, M. luteus, replicate 2 / Bacterial growth relative to medium, M. luteus, replicate 3: OD600, medium = 100, MH II broth, 37 °C, peptide 200 µM mixed 50 µL + 50 µL with bacteria, Figure 7: 48 h; for Bacterial growth relative to medium, M. luteus, replicate 1: replicate column 1; for Bacterial growth relative to medium, M. luteus, replicate 2: replicate column 2; for Bacterial growth relative to medium, M. luteus, replicate 3: replicate column 3; for Antibacterial activity (in words): M. luteus DSM 20030, growth after 48 h
Method: Cryo-conserved cultures of selected bacterial strains (Table 4) were transferred to Tryptic Soy Agar (TSA) plates (Carl Roth) with a sterile inoculation loop, sealed with Parafilm (BEMIS, Neenah, WI, USA), and incubated for 1–2 days at 37 °C depending on growth. Single colonies were picked and transferred into 2–3 mL of the Mueller–Hinton II (MH II) broth (BD, Heidelberg, Germany). The bacteria were cultivated overnight, subcultured on fresh medium and grown for 3–4 h before testing at 37 °C, with shaking at 180 rpm. We measured the optical density at 600 nm (OD600) of 1 mL of the bacterial suspensions in polystyrene cuvettes (SARSTED, Nümbrecht, Germany) using an Ultrospec 10 spectrophotometer (Biochrome, Cambridge, UK). We then diluted them with the MH II medium to the preferred OD600 (Table 2). The peptides were dissolved in DMSO to generate 10 mmol/L stocks and diluted with the MH II medium to 200 µM before the assay. We used 10 µg/mL (~40 µg/mL for S. epidermidis) gentamicin and colistin (Sigma-Aldrich, Taufkirchen, Germany), DMSO and the medium only as controls. The bacteria were transferred to 96-multiwell plates with a final volume of 100 µL per well (50 µL bacterial suspension, and 50 µL test peptide). The OD600 was measured at 0, 24 and 48 h using a BioTek Eon microplate reader followed by analysis with Gen5 v2.09.

[8] = test system: Staphylococcus epidermidis DSM 28319; assay: Antibacterial growth assay (OD600); settings: for Bacterial growth relative to medium, S. epidermidis, replicate 1 / Bacterial growth relative to medium, S. epidermidis, replicate 2 / Bacterial growth relative to medium, S. epidermidis, replicate 3: OD600, medium = 100, MH II broth, 37 °C, peptide 200 µM mixed 50 µL + 50 µL with bacteria, Figure 7: 48 h; for Bacterial growth relative to medium, S. epidermidis, replicate 1: replicate column 1; for Bacterial growth relative to medium, S. epidermidis, replicate 2: replicate column 2; for Bacterial growth relative to medium, S. epidermidis, replicate 3: replicate column 3
[9] = test system: Pseudomonas aeruginosa DSM 50071; assay: Antibacterial growth assay (OD600); settings: OD600, medium = 100, MH II broth, 37 °C, peptide 200 µM mixed 50 µL + 50 µL with bacteria, Figure 7: 48 h; for Bacterial growth relative to medium, P. aeruginosa (50071), replicate 1: replicate column 1; for Bacterial growth relative to medium, P. aeruginosa (50071), replicate 2: replicate column 2; for Bacterial growth relative to medium, P. aeruginosa (50071), replicate 3: replicate column 3

Sequence	Antibacterial activity over the panel (in words) [1]	Bacterial growth relative to medium, E. coli, replicate 1 [2]	Bacterial growth relative to medium, E. coli, replicate 2 [2]	Bacterial growth relative to medium, E. coli, replicate 3 [2]	Viability of infected cells relative to aprotinin, Replicate 1 (A/Hamburg/05/2009 (H1N1))	Viability of infected cells relative to aprotinin, Replicate 2 (A/Hamburg/05/2009 (H1N1))	Viability of infected cells relative to aprotinin, Replicate 3 (A/Hamburg/05/2009 (H1N1))	Viability of infected cells relative to aprotinin, Replicate 1 (A/Hessen/1/2003 (H3N2))	Viability of infected cells relative to aprotinin, Replicate 2 (A/Hessen/1/2003 (H3N2))	Viability of infected cells relative to aprotinin, Replicate 3 (A/Hessen/1/2003 (H3N2))	Bacterial growth relative to medium, P. aeruginosa (1117), replicate 1 [3]	Bacterial growth relative to medium, P. aeruginosa (1117), replicate 2 [3]	Bacterial growth relative to medium, P. aeruginosa (1117), replicate 3 [3]	Viability of infected cells relative to aprotinin, Replicate 1 [4]	Viability of infected cells relative to aprotinin, Replicate 2 [4]	Viability of infected cells relative to aprotinin, Replicate 3 [4]	Bacterial growth relative to medium, L. monocytogenes, replicate 1 [5]	Bacterial growth relative to medium, L. monocytogenes, replicate 2 [5]	Bacterial growth relative to medium, L. monocytogenes, replicate 3 [5]	Bacterial growth relative to medium, S. aureus, replicate 1 [6]	also measured
SLFGLLDLVKSKVGQTGLL [LS-AMP-A1]	limited activity	153.553	169.757	114.343	0.03121	0.03837	0.04316	0.185	0.1781	0.1313	79.0357	70.5187	73.1051	0.04827	0.03878	0.05872	93.4804	90.3626	102.296	106.033	Bacterial growth relative to medium, S. aureus, replicate 2 [6]: 110.791; Bacterial growth relative to medium, S. aureus, replicate 3 [6]: 108.193; Bacterial growth relative to medium, M. luteus, replicate 1 [7]: 73.9935; Bacterial growth relative to medium, M. luteus, replicate 2 [7]: 135.023; Bacterial growth relative to medium, M. luteus, replicate 3 [7]: 50.2152; Bacterial growth relative to medium, S. epidermidis, replicate 1 [8]: 132.924; Bacterial growth relative to medium, S. epidermidis, replicate 2 [8]: 152.819; Bacterial growth relative to medium, S. epidermidis, replicate 3 [8]: 103.22; Bacterial growth relative to medium, P. aeruginosa (50071), replicate 1 [9]: 100.105; Bacterial growth relative to medium, P. aeruginosa (50071), replicate 2 [9]: 111.979; Bacterial growth relative to medium, P. aeruginosa (50071), replicate 3 [9]: 89.7927
SLLGLLDVVKNKVGQI [LS-AMP-A5]	inhibited the growth of most of the bacteria except two	99.4801	69.6408	26.4544	0.0613	0.03494	0.03984	0.17	0.06482	0.08289	63.186	51.5489	62.0721	0.1132	0.06127	0.06301	122.608	80.283	61.98	55.1989	Viability of infected cells relative to aprotinin, Replicate 4 (A/Hessen/1/2003 (H3N2); […], replicate 4 (additional internal control)): 0.1822; Viability of infected cells relative to aprotinin, Replicate 5 (A/Hessen/1/2003 (H3N2); […], replicate 5 (additional internal control)): 0.1791; Viability of infected cells relative to aprotinin, Replicate 6 (A/Hessen/1/2003 (H3N2); […], replicate 6 (additional internal control)): 0.1761; Bacterial growth relative to medium, S. aureus, replicate 2 [6]: 62.917; Bacterial growth relative to medium, S. aureus, replicate 3 [6]: 88.627; Antibacterial activity (in words) [7]: no activity; Bacterial growth relative to medium, M. luteus, replicate 1 [7]: 73.1884; Bacterial growth relative to medium, M. luteus, replicate 2 [7]: 97.1848; Bacterial growth relative to medium, M. luteus, replicate 3 [7]: 36.1549; Bacterial growth relative to medium, S. epidermidis, replicate 1 [8]: 62.884; Bacterial growth relative to medium, S. epidermidis, replicate 2 [8]: 53.6633; Bacterial growth relative to medium, S. epidermidis, replicate 3 [8]: 71.8202; Bacterial growth relative to medium, P. aeruginosa (50071), replicate 1 [9]: 93.2773; Bacterial growth relative to medium, P. aeruginosa (50071), replicate 2 [9]: 109.79; Bacterial growth relative to medium, P. aeruginosa (50071), replicate 3 [9]: 85.8852
SLLGLLDVVKNKVGQIG [LS-AMP-A4]	inhibited the growth of most of the bacteria except two	63.5471	64.6002	38.7121	0.03111	0.02825	0.01475	0.1134	0.06953	0.04762	67.901	83.7452	58.9242	0.05108	0.07356	0.0764	47.529	64.3679	81.7792	64.8588	Antibacterial activity (in words) ([2]; E. coli BL21(DE3), growth after 48 h): able to decrease the growth; Antibacterial activity (in words) [5]: able to decrease the growth; Bacterial growth relative to medium, S. aureus, replicate 2 [6]: 69.2609; Bacterial growth relative to medium, S. aureus, replicate 3 [6]: 80.5088; Antibacterial activity (in words) ([6]; S. aureus DSM 2569, growth after 48 h): able to decrease the growth; Antibacterial activity (in words) [7]: able to decrease the growth; Bacterial growth relative to medium, M. luteus, replicate 1 [7]: 48.8727; Bacterial growth relative to medium, M. luteus, replicate 2 [7]: 93.5811; Bacterial growth relative to medium, M. luteus, replicate 3 [7]: 47.3458; Bacterial growth relative to medium, S. epidermidis, replicate 1 [8]: 50.7409; Bacterial growth relative to medium, S. epidermidis, replicate 2 [8]: 49.8658; Bacterial growth relative to medium, S. epidermidis, replicate 3 [8]: 70.1306; Antibacterial activity (in words) ([8]; S. epidermidis DSM 28319, growth after 48 h): able to decrease the growth; Bacterial growth relative to medium, P. aeruginosa (50071), replicate 1 [9]: 97.6103; Bacterial growth relative to medium, P. aeruginosa (50071), replicate 2 [9]: 110.944; Bacterial growth relative to medium, P. aeruginosa (50071), replicate 3 [9]: 86.4168
SLLGLLDVVKNKVGQIGLL [LS-AMP-A3]	limited activity	114.847	118.887	89.3889	0.0465	0.03476	0.04494	0.1081	0.01008	0.02318	63.3724	74.5214	66.198	0.05676	0.05168	0.08362	59.9369	117.418	68.2929	77.3106	Antibacterial activity (in words) ([3]; P. aeruginosa DSM 1117, growth after 48 h): less effective; Antibacterial activity (in words) [5]: less effective; Bacterial growth relative to medium, S. aureus, replicate 2 [6]: 83.4859; Bacterial growth relative to medium, S. aureus, replicate 3 [6]: 97.1568; Bacterial growth relative to medium, M. luteus, replicate 1 [7]: 106.28; Bacterial growth relative to medium, M. luteus, replicate 2 [7]: 132.545; Bacterial growth relative to medium, M. luteus, replicate 3 [7]: 67.7188; Bacterial growth relative to medium, S. epidermidis, replicate 1 [8]: 125.081; Bacterial growth relative to medium, S. epidermidis, replicate 2 [8]: 166.552; Bacterial growth relative to medium, S. epidermidis, replicate 3 [8]: 95.4096; Bacterial growth relative to medium, P. aeruginosa (50071), replicate 1 [9]: 100.315; Bacterial growth relative to medium, P. aeruginosa (50071), replicate 2 [9]: 112.866; Bacterial growth relative to medium, P. aeruginosa (50071), replicate 3 [9]: 88.8092
